Assay results from the NIST ThermoML archive (doi:10.1016/j.tca.2016.10.016).
Where “and” joins values, the source holds several entries; their conditions need not be identical. Equal entries are not always repeated. Numbers after ± are expanded uncertainties.

Columns and labels:
[1] = Crystal; DTA
[2] = Molar enthalpy of transition or fusion; conditions: Crystal; DSC

Normal melting temperature [1]: 99.60 ± 0.7 °C and 101.20 ± 0.7 °C
Molar enthalpy of transition or fusion [2]: 11.3 kcal/mol and 11.2 kcal/mol
SMILES: O.O.O=C(O)C(=O)O [ethanedioic acid dihydrate]
